Tests used:
Assay type in all cases: physicochemical
[1] = Fluorescence quenching of retinol (TCSPC fluorescence lifetimes); conditions: THF, retinol 0.2 mM, excitation 335 nm, fluorescence at 483 nm; slope of FIG. 2
Method: (§1) The THF solutions of retinol at 0.2 mM and Compound 1 at various concentration were measured on OB920 TR-SPC (Edinburgh Analytical Instruments) by time-correlated single photon counting (TCSPC) using a pulsed LED (335 nm, 5 MHz) for excitation (PicoQuant) for the corresponding fluorescence lifetimes. The fluorescence signal was collected at 483 nm.

[2] = Keto-Avobenzone triplet state quenching (laser flash photolysis, transient absorption); conditions: deoxygenated acetonitrile, avobenzone 0.25 mM, 266 nm flash photolysis, monitored at 380 nm; slope of FIG. 3
Method: The deoxygenated acetonitrile solutions of avobenzone at 0.25 mM and Compound 1 at various concentrations were measured for transient absorption on a homebuilt system (Y. Yagci, S. Jockusch and N. J. Turro, Macromolecules, 2007, 40, 4481-4485; hereby incorporated by reference in its entirety). Keto-Avobenzone was generated by photolysis of enol-Avobenzone at 350 nm. Laser flash photolysis of keto-Avobenzone was conducted at 266 nm with 5 ns pulse width as shown below:
The decay traces of the triplet-absorption of keto-Avobenzone was monitored at 380 nm.

[3] = PpIX triplet state quenching (transient absorption); conditions: Argon saturated acetonitrile, 532 nm excitation, transient absorbance at 630 nm; slope of FIG. 4
Method: The Argon saturated acetonitrile solutions of Protoporphyrin IX (PpIX) at a concentration optimal for light absorption and Compound 1 at various concentrations were measured for transient absorption on a homebuilt system (Y. Yagci, S. Jockusch and N. J. Turro, Macromolecules, 2007, 40, 4481-4485; hereby incorporated by reference in its entirety). Triplet lifetimes were measured at 532 nm (7 ns pulse length) and the transient absorbance was monitored at 630 nm.

[4] = PpIX singlet excited state quenching (TCSPC fluorescence lifetimes); conditions: acetonitrile, excitation 496 nm, fluorescence at 630 nm; slope of FIG. 5
Method: as §1, with “acetonitrile” for “THF”, “PpIX” for “retinol”, “a concentration optimal for light absorption” for “0.2 mM”, “(496 nm)” for “(335 nm, 5 MHz)”, “630” for “483”

[5] = Singlet oxygen generation quenching, Stern-Volmer, Pp-MeIX in acetonitrile; conditions: air saturated acetonitrile, 532 nm excitation, 1O2 phosphorescence at 1270 nm, slope of FIG. 7
Method: (§2) Singlet oxygen phosphorescence measurements of the air saturated acetonitrile solutions of the dimethyl ester derivative of PpIX (Pp-MeIX) at the concentration optimal for light absorption and Compound 1 at various concentrations were performed on a modified Fluorolog-3 spectrometer (HORIBA Jobin Yvon) in conjunction with a NIR sensitive photomultiplier tube (H102330A-45, Hamamatsu). A Spectra Physics GCR-150-30 Nd:YAG laser (532 nm, ca. 5 mJ per pulse, 7 ns) was used for pulsed excitation to collect ^1O2 phosphorescence decay traces at 1270 nm which were stored on a digital oscilloscope (TDS 360 from Tektronics). The Stern-Volmer plots of singlet oxygen phosphorescence were illustrated in FIG. 7. The Stern-Volmer constant Ksv was calculated from the slope of the plot in FIG. 7 to be 57±2 M^−1, which is a direct measurement of the singlet oxygen suppression efficiency of Compound 1.

[6] = Singlet oxygen generation quenching, Stern-Volmer, Pp-MeIX in CDCl3; conditions: air saturated CDCl3, Pp-MeIX, 532 nm excitation, 1O2 phosphorescence at 1270 nm; slope of FIG. 8B
Method: as §2, with “saturated CDCl3” for “saturated acetonitrile”, “FIG. 8B.” for “FIG. 7.”, “FIG. 8B” for “FIG. 7”, “be 14±1” for “be 57±2”

[7] = Singlet oxygen quenching rate constant in acetonitrile (phosphorescence lifetime); conditions: air saturated acetonitrile, Pp-MeIX, 1O2 phosphorescence lifetime at 1270 nm; slope of FIG. 9B
Method: as §2, with “Tektronics).” for “Tektronics). The Stern-Volmer plots of singlet oxygen phosphorescence were illustrated in FIG. 7. The Stern-Volmer constant Ksv was calculated from the slope of the plot in FIG. 7 to be 57±2 M^−1, which is a direct measurement of the singlet oxygen suppression efficiency of Compound 1.”

In the case of `CCCCC(CC)COC(=O)/C(C#N)=C1/c2ccccc2-c2cccnc21` (stereo not shown) [Compound 1], the “bimolecular quenching rate constant Kq of quenching of retinol fluorescence” value [1] is reported as “(9.0±0.3)×10^9 M^−1s^−1”, the “quenching rate constant kq of keto-Avobenzone triplet states” value [2] is reported as “(3.5±0.2)×10^9 M^−1s^−1” and the “quenching rate constant kq of PpIX triplet states” value [3] is reported as 2.7±0.1×10^7 M^−1s^−1. For the same molecule, the “bimolecular quenching rate constant Kq of quenching of PpIX fluorescence (singlet excited state)” value [4] was 2.5±0.1×10^9 M^−1s^−1, the “Stern-Volmer constant Ksv (singlet oxygen suppression efficiency)” value [5] was 57 ± 2 M⁻¹ and the “Stern-Volmer constant Ksv (singlet oxygen suppression efficiency)” value [6] was 14 ± 1 M⁻¹. The “bimolecular quenching rate constant kq of singlet oxygen quenching” value [7] was 1.5±0.1×10^5 M^−1s^−1.
